Results on 37 compounds are retold here after patent publication US9320734B2, “Small molecule inhibitors of the pleckstrin homology domain and methods for using same” (Board of Regents, The University of Texas System, priority 2008, dated 2016).

In brackets after ≈: the same amount, converted by molar mass. Like-named read-outs stand apart in the source and are kept apart here.

The test system of data set [1] is Panc-1 and MiaPaCa-2 pancreatic cancer cells. As to the kind of experiment: Cell viability assay (Table 3). The settings on record: for cytotoxicity: either cell line tested (Panc-1, MiaPaCa-2); for Cell viability (IC50): viability assay, cell line not given, N/I = no inhibition at the highest concentration tested.
The subject of data set [2] is phospho-Ser473-AKT in Panc-1 cells. As to the kind of experiment: Cellular AKT inhibition, Western blot phospho-Ser473-AKT, Panc-1 cells.
The subject of data set [3] is Panc-1 pancreatic cell line. As to the kind of experiment: Apoptosis, morphological assay, Panc-1 cells. Particulars: Panc-1, morphological assay. Type of data set: cell-based, human. From the text:
(§1) AKT inhibition leads to cellular apoptosis.

In data set [4] the test system is MiaPaca-2 pancreatic cell line. The experiment in a line: Apoptosis, morphological assay, MiaPaCa-2 cells. Type of data set: cell-based, human. The settings on record: MiaPaca-2, morphological assay.
Text: as §1

In data set [5] the test system is phospho-Ser473-AKT in MiaPaCa-2 cells. The experiment in a line: Cellular AKT inhibition, Western blot phospho-Ser473-AKT, MiaPaCa-2 cells. The settings on record: read-out: pAKT inhibition (IC50). For orientation: Immunoblotting shows a protein as a band on a membrane.
For data set [6], the system named is phospho-Ser473-AKT in BxPC-3. As to the kind of experiment: Cellular AKT inhibition, Western blot phospho-Ser473-AKT, BxPC-3 cells. It is filed as cell-based, human. The settings on record: for inhibition at 10 µM: Homo sapiens.
Data set [7] is described as follows: Solubility. Type of data set: physicochemical.
For data set [8], the system named is phospho-Ser473 AKT in NIH3T3 cells. As to the kind of experiment: Cellular AKT inhibition, phospho-Ser473 AKT, NIH3T3 cells. Type of data set: cell-based. The settings on record: mouse NIH3T3, phospho-Ser473 AKT. The procedure: (§2) AKT activity was measured by Western blotting using anti-[…] AKT antibody. Downstream targets of AKT were detected also by Western blotting using specific anti-phospho antibodies and anti-actin was used as a loading control.

For data set [9], the system named is HT-29 cells. The experiment in a line: Cell survival / cytotoxicity, MTT assay, HT-29 cells. Type of data set: cell-based, human.
The subject of data set [10] is HT-29 cells. As to the kind of experiment: Metabolic stability under cell culture conditions (incubation with HT-29 cells). Type of data set: in vitro ADME, human. The settings on record: incubating with HT-29 cells at maximum DMEM concentration at 37° C. The source says:
Compound 6 was too insoluble to obtain data.

Data set [11] has as its system phospho-Ser473-AKT in HT-29 cells. As to the kind of experiment: Cellular AKT inhibition, Western blot phospho-Ser473-AKT, HT-29 cells. The settings on record: human HT-29 colon cancer cells. It is filed as cell-based. The procedure:
as §1, §2

The mark [12] stands for this setting: BXPC-3, read-out: % pAKT Inhibition, At 10 μM.
The mark [13] stands for this setting: BxPC-3, Western blots phospho-Ser473-AKT, 10 μM, NI = not inhibitory, read-out: % pAKT Inhibition, At 10 μM.
[14] abbreviates: MTT assay, read-out: Cell survival (IC50).
The mark [15] stands for this setting: Western blotting, phospho-Ser473-AKT, MiaPaCa-2 cells, N/I = no inhibition at the highest concentration tested.

Take `Nc1ccc(S(=O)(=O)Nc2nncs2)cc1` [Compound 100, 4-Amino-N-(1,3,4-thiadiazol-2-yl)benzenesulfonamide]: in data set [1], the cytotoxicity entry was “did not exhibit cytotoxicity” and the “Cell viability (IC50)” value is “N/I”.
Take `CCCCCCCCCC(=O)Nc1ccc(S(=O)(=O)Nc2nncs2)cc1` [Compound 101, N-(4-(N-1,3,4-Thiadiazol-2-ylsulfamoyl)phenyl)decanamide]: the IC50 in data set [2] (Homo sapiens, PANC-1, read-out: pAKT inhibition (IC50)) was determined as 10 µM.
As to `COCCOCCOCC(=O)Nc1ccc(S(=O)(=O)Nc2nncs2)cc1` [Compound 103], the “Apoptosis at 20 μmol/L” value in data set [3] was 11.4 ± 0.5/ %; in data set [4], 18.7 ± 3.1%. Moreover, the IC50 in data set [2] (read-out: pAKT inhibition (IC50), Panc-1, Western blots phospho-Ser473-AKT) was over 50 µM; in data set [5] (MiaPaca-2, Western blots phospho-Ser473-AKT) it was over 50 µM.
Consider `Cc1nnc(NS(=O)(=O)c2ccc(N)cc2)s1` [Compound 105, 4-Amino-N-(5-methyl-1,3,4-thiadiazol-2-yl)benzenesulfonamide], for which the inhibition at 10 µM in data set [6] (setting [12]) is 11%.
As to `CCCCCCCCCC(=O)Nc1ccc(S(=O)(=O)Nc2nnc(C)s2)cc1` [Compound 107, N-(4-(N-(5-Methyl-1,3,4-thiadiazol-2-yl)sulfamoyl)phenyl)decanamide], in data set [6] (setting [13]), the inhibition at 10 µM turned out to be 11%.
Same read-out and setting: as for `CCCCCCCCCCCCc1ccc(S(=O)(=O)Nc2nnc(C)s2)cc1` [Compound 108, 4-Dodecyl-N-(5-methyl-1,3,4-thiadiazol-2-yl)benzenesulfonamide], the figure is 64%.
Consider `CCc1nnc(NS(=O)(=O)c2ccc(N)cc2)s1` [Compound 109, 4-Amino-N-(5-ethyl-1,3,4-thiadiazol-2-yl)benzenesulfonamide], for which, in [6] (setting [13]), the inhibition at 10 µM was found to be 16%.
For `CCc1nnc(NS(=O)(=O)c2ccc(NC(C)=O)cc2)s1` [Compound 110, N-(4-(N-(5-Ethyl-1,3,4-thiadizol-2-yl)sulfamoyl)phenyl)acetamide], the “% pAKT Inhibition, At 10 μM” value in [6] (BxPC-3, Western blots phospho-Ser473-AKT, 10 μM, NI = not inhibitory) was found to be 45%.
As to `CCCCCCCCCC(=O)Nc1ccc(S(=O)(=O)Nc2nnc(CC)s2)cc1` [Compound 111, N-(4-(N-(5-Ethyl-1,3,4-thiadiazol-2-yl)sulfamoyl)phenyl)decanamide], the inhibition at 10 µM in data set [6] (setting [13]) was 22%.
For `CC(C)(C)c1nnc(NS(=O)(=O)c2ccc(N)cc2)s1` [Compound 113, 4-Amino-N-(5-tert-butyl-1,3,4-thiadiazol-2-yl)benzenesulfonamide], in data set [6] (setting [13]), the inhibition at 10 µM came to 13%.
`CC(=O)Nc1ccc(S(=O)(=O)Nc2nnc(C(C)(C)C)s2)cc1` [Compound 114, N-(4-(N-(5-tert-Butyl-1,3,4-thiadiazol-2-yl)sulfamoyl)phenyl)acetamide]: the inhibition at 10 µM in [6] (setting [13]) is 20%.
Regarding `CCCCCCCCCC(=O)Nc1ccc(S(=O)(=O)Nc2nnc(C(C)(C)C)s2)cc1` [Compound 115, N-(4-(N-(5-tert-Butyl-1,3,4-thiadiazol-2-yl)sulfamoyl)phenyl)decanamide], in [6] (setting [13]), the inhibition at 10 µM is 16%.
On to `CCCCCCCCCCCCc1ccc(S(=O)(=O)Nc2nnc(C(C)(C)C)s2)cc1` [Compound 116, N-(5-tert-Butyl-1,3,4-thiadiazol-2-yl)-4-dodecylbenzenesulfonamide], for which the inhibition at 10 µM in [6] (setting [13]) was 36%.
As to `Nc1ccc(S(=O)(=O)Nc2nnc(CC(=O)O)s2)cc1` [Compound 117, 2-(5-(4-Aminophenylsulfonamido)-1,3,4-thiadiazol-2-yl)acetic Acid], in data set [6] (setting [13]), the inhibition at 10 µM amounted to 23%.
Regarding `CC(=O)Nc1ccc(S(=O)(=O)Nc2nnc(CC(=O)O)s2)cc1` [Compound 118, 2-(5-(4-Acetamidophenylsulfonamido)-1,3,4-thiadiazol-2-yl)acetic Acid], the inhibition at 10 µM in data set [6] (setting [13]) turned out to be 19%.
For `CCOC(=O)Cc1nnc(NS(=O)(=O)c2ccc(NC(C)=O)cc2)s1` [Compound 118E, Ethyl 2-(5-(4-Acetamidophenylsulfonamido)-1,3,4-thiadiazol-2-yl)acetate], the inhibition at 10 µM in [6] (setting [13]) worked out at 55%.
With `CCCCCCCCCC(=O)Nc1ccc(S(=O)(=O)Nc2nnc(CC(=O)O)s2)cc1` [Compound 119, 2-(5-(4-Decanamidophenylsulfonamido)-1,3,4-thiadiazol-2-yl)acetic Acid], in data set [6] (setting [13]), the inhibition at 10 µM is 42%.
As for `CCCCCCCCCC(=O)Nc1ccc(S(=O)(=O)Nc2nnc(C(=O)OCC)s2)cc1` [Compound 123E, Ethyl 5-(4-Decanamidophenylsulfonamido)-1,3,4-thiadiazole-2-carboxylate], the inhibition at 10 µM in [6] (setting [13]) came out at 10%.
In the case of `Nc1ccc(S(=O)(=O)Nc2nnc(CO)s2)cc1` [Compound 125, 4-Amino-N-(5-(hydroxymethyl)-1,3,4-thiadiazol-2-yl)benzenesulfonamide], in data set [6] (setting [13]), the inhibition at 10 µM worked out at 10%.
On the same count and under the same terms, as for `CCCCCCCCCC(=O)Nc1ccc(S(=O)(=O)Nc2nnc(CO)s2)cc1` [Compound 127, N-(4-(N-(5-(hydroxymethyl)-1,3,4-thiadiazol-2-yl)sulfamoyl)phenyl)decanamide], the figure is 11%.
For the compound `Nc1ccc(S(=O)(=O)Nc2nnc(S(N)(=O)=O)s2)cc1` [Compound 131, 5-(4-Aminophenylsulfonamido)-1,3,4-thiadiazole-2-sulfonamide], in data set [6] (setting [12]), the inhibition at 10 µM was 18%.
Consider `CCCCCCCCCCCCc1ccc(S(=O)(=O)Nc2nnc(CCCCCN(C)c3ccc([N+](=O)[O-])c4nonc34)s2)cc1` [Compound 137, 4-Dodecyl-N-(5-(5-(methyl(7-nitrobenzo[c][1,2,5]oxadiazol-4-yl)amino)pentyl)-1,3,4-thiadiazol-2-yl)benzenesulfonamide], for which the AKT phosphorylation entry in data set [6] (BxPC-3 cells, compared with 104) is recorded as “inhibited AKT phosphorylation in a fashion similar to 104”.
Take `CCCCCCCCc1ccc(S(=O)(=O)Nc2nncs2)cc1` [Compound 153, 4-Octyl-N-(1,3,4-thiadiazol-2-yl)benzenesulfonamide]: the inhibition at 10 µM in [6] (setting [13]) was determined as 10%.
Same read-out and setting: as for `CCCCCCCCCCCCCCc1ccc(S(=O)(=O)Nc2nncs2)cc1` [Compound 156, 4-Tetradecyl-N-(1,3,4-thiadiazol-2-yl)benzenesulfonamide], the figure is 70%; as for `CCCCCCCCCCCCCCCCc1ccc(S(=O)(=O)Nc2nncs2)cc1` [Compound 157, 4-Hexadecyl-N-(1,3,4-thiadiazol-2-yl)benzenesulfonamide], 50%.
Turning to `CC1=NN(C(=O)c2ccccc2)C(=O)C1/N=N/c1ccc(S(=O)(=O)Nc2ncccn2)cc1` (stereo not drawn) [Compound 331], the Solubility in data set [7] amounted to 28.3 µM (≈ 13.1 µg/mL). The IC50 in [8] amounted to 11 µM; in [9] (HT-29 cells, NI = not inhibitory, read-out: Cytotoxicity (IC50 μM)), 14 µM; in data set [11], 20 µM. The compound further displayed a Metabolic half life in data set [10] of 1.03 h.
In turn, `CC1=NN(C(=O)c2ccc(Cl)cc2)C(O)C1/N=N/c1ccc(S(=O)(=O)Nc2ncccn2)cc1` (stereo not drawn) [Compound 335] came in with a Solubility in [7] of under 0.1 µM. In addition, the IC50 in data set [8] stood at 3 µM; in data set [11], 5 µM.
In the case of `NS(=O)(=O)c1nnc(NS(=O)(=O)c2cccc3cccnc23)s1` [Compound 345], the IC50 in data set [9] (setting [14]) was over 100 µM.
As for `CC1=NN(C(=O)c2ccc(Cl)cc2)C(=O)C1/N=N/c1ccc(S(=O)(=O)Nc2nnc(C)s2)cc1` (stereo not drawn) [Compound 389], in data set [9] (setting [14]), the IC50 is over 100 µM.
Take `COc1cc(NS(=O)(=O)c2ccc(NS(=O)(=O)c3c(C)noc3C)cc2)nc(OC)n1` [Compound 415]: the IC50 in [9] (setting [14]) came out at 3.1 µM.
On to `O=C(Nc1ccccc1)c1ccccc1NC(=O)c1ccccc1C(=O)O` [Compound 439], for which, in data set [1], the “Cell viability (IC50)” value is on record as “N/I”. In data set [5] (setting [15]), the IC50 turned out to be 50 µM.
For `CCOc1ccccc1C(=O)Nc1ccccc1C(=O)O` [Compound 441], in that order: “N/I” and 25 µM.
For `COc1cc(NS(=O)(=O)c2ccc(Nc3ccco3)cc2)nc(OC)n1` [Compound 444], in that order: “N/I” and 50 µM.
For `COc1cc(NS(=O)(=O)c2ccc(NC(=O)c3ccco3)cc2)nc(OC)n1` [Compound 445], in data set [1], the “Cell viability (IC50)” value is “N/I”. In addition, the IC50 in data set [5] (setting [15]) was 50 µM.
In the case of `COc1cc(NS(=O)(=O)c2ccc(NC(C)=O)cc2)nc(OC)n1` [Compound 450], the “Cell viability (IC50)” value in [1] was “N/I”. In addition, the IC50 in data set [5] (setting [15]) is 50 µM.
In the case of `Cc1nnc(NS(=O)(=O)c2ccc(NS(=O)(=O)c3ccc4ccccc4c3)cc2)s1` [Compound 455], in [1], the cytotoxicity result is given as “did not exhibit cytotoxicity” and the “Cell viability (IC50)” value was “N/I”.
`Nc1ccc(S(=O)(=O)Nc2ccc(S(=O)(=O)Nc3nnc(S(N)(=O)=O)s3)cc2)cc1` [Compound 456]: in data set [1], the “Cell viability (IC50)” value is recorded as “N/I”. For the same compound, the IC50 in [5] (setting [15]) was 50 µM.

As usually defined, the IC50 is the point on the concentration scale where inhibition reaches its midpoint. The inhibition is the relative decrease from the control value, in per cent. A word on the Solubility: it is the dissolved amount per volume that the medium holds. A high value points to a readily soluble substance.
